Counter-ions that a name gives are not always drawn.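 Exposure lasted 48 hours, with cells grown in 96-well plates and compounds tested at five concentrations. The concentration for 50% growth inhibition is given as GI50.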 Active and inactive are the calls of the source. No stated cut-off is given here; in the data, active = GI50 up to about 1.1 µM and inactive = higher.
How the values were obtained:
Assay in all cases: NCI tumour cell line growth inhibition, 48 h
786-0 = tested on: 786-0
COLO 205 = tested on: COLO 205
M14 = tested on: M14
NCI-H23 = tested on: NCI-H23
SF-295 = tested on: SF-295
SK-OV-3 = tested on: SK-OV-3
CAKI-1 = tested on: CAKI-1
SK-MEL-5 = tested on: SK-MEL-5
K562 = tested on: K562
MCF7 = tested on: MCF7
NCI-H226 = tested on: NCI-H226
KM12 = tested on: KM12
HCT-116 = tested on: HCT-116
CCRF-CEM = tested on: CCRF-CEM
U-251 = tested on: U-251
IGROV-1 = tested on: IGROV-1
A498 = tested on: A498
NCI-H460 = tested on: NCI-H460

## O=C1N[C@H](C(=O)O)[C@@H](c2ccc(OCc3ccccc3)cc2)O1
786-0
  GI50: 16.6 µM (inactive)
COLO 205
  GI50: > 100 µM (inactive)
M14
  GI50: > 100 µM (inactive)
NCI-H23
  GI50: 40.4 µM (inactive)
SF-295
  GI50: 26.1 µM (inactive)
SK-OV-3
  GI50: 44.1 µM (inactive)
CAKI-1
  GI50: 34.3 µM (inactive)
SK-MEL-5
  GI50: > 100 µM (inactive)
K562
  GI50: > 100 µM (inactive)
MCF7
  GI50: 37.1 µM (inactive)
NCI-H226
  GI50: 24.9 µM (inactive)
KM12
  GI50: > 100 µM (inactive)
HCT-116
  GI50: 31.7 µM (inactive)
CCRF-CEM
  GI50: > 100 µM (inactive)
U-251
  GI50: 27.9 µM (inactive)
IGROV-1
  GI50: 20.9 µM (inactive)

## O=C(O)[C@@H]1CCS(=O)(=O)N1
786-0
  GI50: > 100 µM (inactive)
COLO 205
  GI50: > 100 µM (inactive)
A498
  GI50: > 100 µM (inactive)
M14
  GI50: > 100 µM (inactive)
NCI-H23
  GI50: > 100 µM (inactive)
SF-295
  GI50: > 100 µM (inactive)
SK-OV-3
  GI50: > 100 µM (inactive)
CAKI-1
  GI50: > 100 µM (inactive)
SK-MEL-5
  GI50: > 100 µM (inactive)
NCI-H460
  GI50: > 100 µM (inactive)
MCF7
  GI50: > 100 µM (inactive)
KM12
  GI50: > 100 µM (inactive)
HCT-116
  GI50: > 100 µM (inactive)
CCRF-CEM
  GI50: > 100 µM (inactive)
IGROV-1
  GI50: > 100 µM (inactive)

## COc1ccc2c(c1)[C@@H]1c3cc(OC)c(OC)cc3CCN1CCC2
786-0
  GI50: > 100 µM (inactive)
COLO 205
  GI50: > 100 µM (inactive)
A498
  GI50: > 100 µM (inactive)
M14
  GI50: > 100 µM (inactive)
NCI-H23
  GI50: > 100 µM (inactive)
SF-295
  GI50: > 100 µM (inactive)
CAKI-1
  GI50: > 100 µM (inactive)
SK-MEL-5
  GI50: 36.7 µM (inactive)
K562
  GI50: 65.3 µM (inactive)
NCI-H460
  GI50: 31.4 µM (inactive)
MCF7
  GI50: 83.4 µM (inactive)
KM12
  GI50: > 100 µM (inactive)
HCT-116
  GI50: 76.2 µM (inactive)
CCRF-CEM
  GI50: 87.7 µM (inactive)
U-251
  GI50: > 100 µM (inactive)
IGROV-1
  GI50: > 100 µM (inactive)

## CCCCNC(=O)C1=C(C)NC(C)=C(C(=O)NCCCC)C1
786-0
  GI50: > 100 µM (inactive)
COLO 205
  GI50: > 100 µM (inactive)
A498
  GI50: > 100 µM (inactive)
M14
  GI50: > 100 µM (inactive)
NCI-H23
  GI50: > 100 µM (inactive)
SF-295
  GI50: > 100 µM (inactive)
SK-OV-3
  GI50: > 100 µM (inactive)
CAKI-1
  GI50: > 100 µM (inactive)
SK-MEL-5
  GI50: 89.7 µM (inactive)
NCI-H460
  GI50: > 100 µM (inactive)
MCF7
  GI50: > 100 µM (inactive)
NCI-H226
  GI50: > 100 µM (inactive)
KM12
  GI50: > 100 µM (inactive)
HCT-116
  GI50: > 100 µM (inactive)
U-251
  GI50: > 100 µM (inactive)
IGROV-1
  GI50: 61.1 µM (inactive)

## O=C(N/N=C1\CCc2ccccc2C1)N/N=C1\CCc2ccccc2C1
786-0
  GI50: > 10 µM (inactive)
COLO 205
  GI50: > 10 µM (inactive)
M14
  GI50: > 10 µM (inactive)
NCI-H23
  GI50: > 10 µM (inactive)
SF-295
  GI50: > 10 µM (inactive)
CAKI-1
  GI50: > 10 µM (inactive)
K562
  GI50: > 10 µM (inactive)
NCI-H460
  GI50: > 10 µM (inactive)
MCF7
  GI50: > 10 µM (inactive)
NCI-H226
  GI50: > 10 µM (inactive)
KM12
  GI50: > 10 µM (inactive)
HCT-116
  GI50: > 10 µM (inactive)
CCRF-CEM
  GI50: > 10 µM (inactive)
U-251
  GI50: > 10 µM (inactive)

## COc1ccc(OC)c(C2Cc3cnc4nc(N)nc(N)c4c3C2)c1 (configuration not stated)
786-0
  GI50: 24.2 µM (inactive)
COLO 205
  GI50: 19.5 µM (inactive)
A498
  GI50: 16.9 µM (inactive)
M14
  GI50: 36.1 µM (inactive)
NCI-H23
  GI50: 32.2 µM (inactive)
SF-295
  GI50: 28.6 µM (inactive)
SK-OV-3
  GI50: 31.8 µM (inactive)
CAKI-1
  GI50: 76.9 µM (inactive)
SK-MEL-5
  GI50: 29.6 µM (inactive)
K562
  GI50: 19.1 µM (inactive)
NCI-H460
  GI50: 26.5 µM (inactive)
MCF7
  GI50: 29.2 µM (inactive)
KM12
  GI50: 24.3 µM (inactive)
HCT-116
  GI50: 19.8 µM (inactive)
CCRF-CEM
  GI50: 24.4 µM (inactive)
U-251
  GI50: 20.7 µM (inactive)
IGROV-1
  GI50: 15.8 µM (inactive)

## CN(CCCCCl)P(=O)(OCc1ccc([N+](=O)[O-])o1)OCC1OC(n2ccc(N)nc2=O)C(O)C1O (configuration not stated)
786-0
  GI50: 13.4 µM (inactive)
COLO 205
  GI50: 1.05 µM (active)
M14
  GI50: 7.48 µM (inactive)
NCI-H23
  GI50: 5.79 µM (inactive)
SF-295
  GI50: 13.9 µM (inactive)
SK-OV-3
  GI50: 4.17 µM (inactive)
CAKI-1
  GI50: 55 µM (inactive)
SK-MEL-5
  GI50: 0.097 µM (active)
K562
  GI50: 2.99 µM (inactive)
NCI-H460
  GI50: 2.29 µM (inactive)
MCF7
  GI50: 1.82 µM (inactive)
NCI-H226
  GI50: 11.4 µM (inactive)
KM12
  GI50: 3.24 µM (inactive)
HCT-116
  GI50: 3.68 µM (inactive)
U-251
  GI50: 2.14 µM (inactive)
IGROV-1
  GI50: 3.08 µM (inactive)

## NCCCCNCCCN [SPERMIDINE TRIHYDROCHLORIDE]
786-0
  GI50: > 100 µM (inactive)
COLO 205
  GI50: > 100 µM (inactive)
A498
  GI50: > 100 µM (inactive)
M14
  GI50: > 100 µM (inactive)
NCI-H23
  GI50: > 100 µM (inactive)
SF-295
  GI50: > 100 µM (inactive)
SK-OV-3
  GI50: > 100 µM (inactive)
CAKI-1
  GI50: 1.71 µM (inactive)
SK-MEL-5
  GI50: > 100 µM (inactive)
K562
  GI50: 67.8 µM (inactive)
NCI-H460
  GI50: > 100 µM (inactive)
MCF7
  GI50: 72.8 µM (inactive)
NCI-H226
  GI50: > 100 µM (inactive)
KM12
  GI50: > 100 µM (inactive)
HCT-116
  GI50: > 100 µM (inactive)
U-251
  GI50: > 100 µM (inactive)
IGROV-1
  GI50: > 100 µM (inactive)

## O=C(O)C1C(C(=O)O)C23CC2(C(=O)O)C2(C(=O)O)CCC3=C3CCCC312 (configuration not stated)
786-0
  GI50: 10.3 µM (inactive)
COLO 205
  GI50: 3.81 µM (inactive)
A498
  GI50: 18.3 µM (inactive)
M14
  GI50: 6.84 µM (inactive)
NCI-H23
  GI50: 7.96 µM (inactive)
SF-295
  GI50: 4.13 µM (inactive)
SK-OV-3
  GI50: 3.89 µM (inactive)
CAKI-1
  GI50: 20.2 µM (inactive)
SK-MEL-5
  GI50: 5.22 µM (inactive)
K562
  GI50: 12.7 µM (inactive)
NCI-H460
  GI50: 4.99 µM (inactive)
MCF7
  GI50: 11.7 µM (inactive)
NCI-H226
  GI50: 10.4 µM (inactive)
KM12
  GI50: 14 µM (inactive)
HCT-116
  GI50: 6.85 µM (inactive)
U-251
  GI50: 5.97 µM (inactive)
IGROV-1
  GI50: 7.93 µM (inactive)

## COc1ccc(CCNC(=O)c2ccccc2C2c3ccc(OCc4ccccc4)cc3Oc3cc(OCc4ccccc4)ccc32)cc1OC
786-0
  GI50: > 100 µM (inactive)
COLO 205
  GI50: > 100 µM (inactive)
A498
  GI50: > 100 µM (inactive)
M14
  GI50: > 100 µM (inactive)
NCI-H23
  GI50: > 100 µM (inactive)
SF-295
  GI50: > 100 µM (inactive)
SK-OV-3
  GI50: > 100 µM (inactive)
CAKI-1
  GI50: > 100 µM (inactive)
SK-MEL-5
  GI50: > 100 µM (inactive)
K562
  GI50: > 100 µM (inactive)
MCF7
  GI50: > 100 µM (inactive)
NCI-H226
  GI50: > 100 µM (inactive)
KM12
  GI50: > 100 µM (inactive)
HCT-116
  GI50: > 100 µM (inactive)
U-251
  GI50: > 100 µM (inactive)
IGROV-1
  GI50: > 100 µM (inactive)

## C=C1C(=O)C23CC1CCC2C12CO[C@H](O)[C@H]1C(C)(C)[C@H](OC(C)=O)C[C@H]2OC3=O (some centres not stated)
786-0
  GI50: 16 µM (inactive)
COLO 205
  GI50: 15.1 µM (inactive)
M14
  GI50: 25.4 µM (inactive)
NCI-H23
  GI50: 27.7 µM (inactive)
SF-295
  GI50: > 100 µM (inactive)
SK-OV-3
  GI50: > 100 µM (inactive)
CAKI-1
  GI50: 15.2 µM (inactive)
SK-MEL-5
  GI50: 30.8 µM (inactive)
K562
  GI50: 5.9 µM (inactive)
NCI-H460
  GI50: 34.6 µM (inactive)
MCF7
  GI50: 15.8 µM (inactive)
NCI-H226
  GI50: > 100 µM (inactive)
KM12
  GI50: 23 µM (inactive)
HCT-116
  GI50: 14.8 µM (inactive)
CCRF-CEM
  GI50: 6.14 µM (inactive)
U-251
  GI50: 64.1 µM (inactive)
IGROV-1
  GI50: 31.9 µM (inactive)

## CCCCCCCCCCCCOCC(COP(=O)(O)OCCN=[N+]=[N-])OC(=O)CCCCCCCCCCC (configuration not stated)
786-0
  GI50: > 100 µM (inactive)
COLO 205
  GI50: > 100 µM (inactive)
A498
  GI50: > 100 µM (inactive)
M14
  GI50: > 100 µM (inactive)
NCI-H23
  GI50: > 100 µM (inactive)
SF-295
  GI50: > 100 µM (inactive)
SK-OV-3
  GI50: > 100 µM (inactive)
CAKI-1
  GI50: > 100 µM (inactive)
SK-MEL-5
  GI50: > 100 µM (inactive)
K562
  GI50: > 100 µM (inactive)
NCI-H460
  GI50: > 100 µM (inactive)
MCF7
  GI50: > 100 µM (inactive)
KM12
  GI50: > 100 µM (inactive)
HCT-116
  GI50: > 100 µM (inactive)
U-251
  GI50: > 100 µM (inactive)

Source: ChEMBL document CHEMBL1201862, “PubChem BioAssay data set” (2004)
